Legend:
human ETA receptors = molecular target: T1, human ETA receptors (Homo sapiens, UniProt P25101); assay: Inhibition of endothelin binding to recombinant ETA receptors; conditions: 125I-endothelin 20 pM; 20° C. for 2 hours or 4° C. for 24 hours; baculovirus-insect cell membranes; read-out: IC50 (concentration required to inhibit 50% of the specific binding of 125I-endothelin)
T1 construct: made in house
T1 sequence (P25101 21-427): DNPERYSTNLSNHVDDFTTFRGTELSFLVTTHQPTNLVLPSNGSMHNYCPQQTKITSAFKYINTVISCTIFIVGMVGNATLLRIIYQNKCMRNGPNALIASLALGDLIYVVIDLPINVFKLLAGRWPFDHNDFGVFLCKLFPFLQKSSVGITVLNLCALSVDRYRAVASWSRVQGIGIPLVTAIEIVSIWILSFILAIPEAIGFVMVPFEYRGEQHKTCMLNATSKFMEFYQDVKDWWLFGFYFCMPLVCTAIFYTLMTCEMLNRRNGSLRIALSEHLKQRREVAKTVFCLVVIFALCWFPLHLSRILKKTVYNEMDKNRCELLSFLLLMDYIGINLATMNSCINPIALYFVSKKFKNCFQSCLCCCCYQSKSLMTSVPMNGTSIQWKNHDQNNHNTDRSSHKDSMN
Description: I: Inhibition of endothelin binding to recombinant ETA receptors
A cDNA coding for human ETA receptors of human placenta was cloned (M. Adachi, Y.-Y. Yang, Y. Furuichi and C. Miyamoto, BBRC 180, 1265-1272) and expressed in the baculovirus-insect cell system. Baculovirus-infected insect cells from a 23 l fermenter are centrifuged off (3000×g, 15 minutes, 4° C.) 60 hours after the infection, re-suspended in Tris buffer (5 mM, pH 7.4, 1 mM MgCl2) and again centrifuged. After a further re-suspension and centrifugation the cells are suspended in 800 ml of the same buffer and […] at -120° C. The cells disintegrate when the suspension in this hypotonic buffer mixture is thawed. After a repeated freeze-drying/thawing cycle the suspension is homogenized and centrifuged (25000 ×g, 15 minutes, 4° C.). After suspension in Tris buffer (75 mM, pH 7.4, 25 mM MgCl2, 250 mM saccharose) 1 ml aliquots (protein content about 3.5 mg/ml) are stored at -85° C.
For the binding assay, the […] membrane preparations are thawed and, after centrifugation at 20° C. and 25000 g for 10 minutes, re-suspended in assay buffer (50 mM Tris buffer, pH 7.4, containing 25 mM MnCl2, 1 mM EDTA and 0.5% bovine serum albumin). […] of this membrane suspension containing […] of protein are incubated with […] of ^125 I-endothelin (specific activity 2200 Ci/mMol) in assay buffer (25000 cpm, final concentration 20 pM) and […] of assay buffer containing varying concentrations of test compound. The incubation is carried out at 20° C. for 2 hours or at 4° C. for 24 hours. The separation of free and membrane-bound radio-ligands is carried out by filtration over a glass fiber filter.
The inhibitory activity of compounds of formula I determined in this test procedure is given in Table 1 as the IC50, i.e. as the concentration […] which is required to inhibit 50% of the specific binding of ^125 I-endothelin.

[1] = system: "stroke-prone", spontaneously hypertensive rats; assay: In vivo blood pressure in pathophysiologically relevant rat model (telemetry); conditions: 30 mg/kg in gum arabic, by probe
Description: A telemetric system (PA-C40 implant) was implanted into "stroke-prone", spontaneously hypertensive rats under anaesthesia in order that the arterial blood pressure and the heart rate could be measured continuously. The animals were left to recover for 2 weeks after the operation.
The corresponding test compound (30 mg/kg in gum arabic) was finally administered using a probe and the blood pressure was registered continuously. It became evident that compounds of formula I caused a fall in blood pressure, the administration of gum arabic alone (placebo control) having no significant effect on the blood pressure.

[2] = system: endothelin-induced contractions in isolated rat aorta rings; assay: Inhibition of endothelin-induced contractions in isolated rat aorta rings; format: cell-based, rat (adult Wistar-Kyoto); conditions: endothelin-1, no antagonist; half-maximum contraction; read-out: EC50 of endothelin in the absence of test compounds
Description: II. Inhibition of endothelin-induced contractions in isolated rat aorta rings
Rings with a length of 5 mm were cut out from the thorax aorta of adult Wistar-Kyoto rats. The endothelium was removed by lightly rubbing the internal surface. Each ring was immersed at 37° C. in 10 ml of Krebs-Henseleit solution in an isolated bath while gassing with 95% O2 and 5% CO2. The isometric stretching of the tings was measured. The rings were stretched to a pre-tension of 3 g. After incubation for 10 minutes with the test compound or vehicle cumulative dosages of endothelin-1 were added. The activity of the test compound was ascertained by the observed shift to the right of the dosage-activity curve of endothelin-1 in the presence of different concentrations of antagonist. This shift to the right (or "dose ratio", DR) corresponds to the quotient from the EC50 values of endothelin-1 in the presence and in the absence of antagonist, with the EC50 value denoting the endothelin concentration required for a half-maximum contraction.
The corresponding PA2 value, which is a measure of the activity of the test compound, was calculated using a computer programme according to the following equation from the "dose ratio" DR for each individual dosage-activity curve.
pA2 =log(DR-1)-log(antagonist-concentration)
The EC50 of endothelin in the absence of test compounds is 0.3 nM.

IC50 (human ETA receptors) [nM]	Molecule	% Decrease in the average arterial blood pressure (mm Hg) [1] [%]	EC50 [2] [nM]
1	COCCc1nc(NS(=O)(=O)c2ccc3c(c2)OCO3)c(Oc2cc(OC)ccc2Cl)c(OCCOC(=O)Nc2ccccn2)n1 [Example 10, pyridine-2-ylcarbamic acid 2-[6-(1,3-benzodioxol-5-ylsulfonylamino)-5-(2-chloro-5-methoxy-phenoxy)-2-(2-methoxyethyl)-pyrimidin-4-yloxy]-ethyl ester]	–	–
6	COc1ccccc1Oc1c(NS(=O)(=O)c2ccc(C(C)(C)C)cc2)nc(-c2ncccn2)nc1OCCOC(=O)Nc1ccccn1 [Example 70, pyridin-2-ylcarbamic acid 2-[6-(4-tert-butyl-phenylsulfonylamino)-5-(2-methoxy-phenoxy)-2,2'-bipyrimidin-4-yloxy]-ethyl ester]	30	–
3	COc1ccccc1Oc1c(NS(=O)(=O)c2ccc(C(C)(C)C)cc2)nc(N2CCOCC2)nc1OCCOC(=O)Nc1ccco1 [Example 75, furan-2-ylcarbamicacid 2-[6-(4-tert-butyl-phenylsulfonylamino)-5-(2-methoxy-phenoxy)-2-morpholin-4-yl-pyrimidin-4-yloxy]-ethyl ester]	–	–
7	COc1ccc(S(=O)(=O)Nc2ncnc(OCCOC(=O)Nc3ccccn3)c2Oc2ccccc2OC)cc1CCC(=O)N1CCOCC1 [Example 120, pyridin-2-ylcarbamic acid 2-[6-[4-methoxy-3-(3-morpholin-4-yl-3-oxo-propyl)-phenylsulfonylamino]-5-(2-methoxy-phenoxy)-pyrimidin-4-yloxy]-ethyl ester]	–	–
44	COc1ccc(Cl)c(Oc2c(NS(=O)(=O)c3ccc(C(C)(C)C)cc3)ncnc2OCCNC(=O)Nc2ccncc2)c1 [Example 134]	–	–
9	COc1ccc(Cl)c(Oc2c(NS(=O)(=O)c3ccc4c(c3)OCO4)ncnc2OCCOC(=O)OCc2ccccn2)c1 [Example 140, carboxylic acid 2-[6-(1,3-benzodioxol-5-ylsulfonylamino)-5-(2-chloro-5-methoxy-phenoxy)-pyrimidin-4-yloxy]-ethyl ester pyridin-2-ylmethyl ester]	–	–
–	endothelin: endothelin-1, agonist added in cumulative dosages to the rat aorta rings	–	0.3

Reference: patent US5541186A, “Sulfonylaminopyrimidines” (Hoffmann-La Roche Inc., priority 1993, dated 1996)
